Laboratory results taken from patent publication EP4553080A1, “NUCLEOSIDE DERIVATIVES AS ANTIVIRAL AGENTS AGAINST CORONAVIRUSES” (Ustav Organicke Chemie a Biochemie AV CR, v.v.i., priority 2023, dated 2025).

The compounds below were run against nsp14 methyltransferase from SARS-CoV-2 (Severe acute respiratory syndrome coronavirus 2, UniProt P0DTD1) (assay: Nsp14 MTase activity inhibition in vitro (EchoMS assay)). Settings: recombinant nsp14 protein expressed in E. coli; dose-response curve.
Format: biochemical
Cc1noc(-c2ccc3c(c2)OCO3)c1CSC[C@H]1O[C@@H](n2cc(C#Cc3cncnc3)c3c(N)ncnc32)[C@H](O)[C@@H]1O [Compound 243c, (2R,3R,4S,5S)-2-(4-Amino-5-(pyrimidin-5-ylethynyl)-7H-pyrrolo[2,3-d]pyrimidin-7-yl)-5-((((5-(benzo[d][1,3]dioxol-5-yl)-3-methylisoxazol-4-yl)methyl)thio)methyl)tetrahydrofuran-3,4-diol] gave an IC50 of 10 to 30 nM.
For Cc1noc(-c2ccccc2)c1CSC[C@H]1O[C@@H](n2cc(-c3ccc(-c4ccccn4)cc3)c3c(N)ncnc32)[C@H](O)[C@@H]1O [Compound 188], the IC50 was 30 to 100 nM.
Compound Cc1noc(-c2cccc3ccccc23)c1CSC[C@H]1O[C@@H](n2ccc3c(N)ncnc32)[C@H](O)[C@@H]1O [Compound 100c, (2R,3R,4S,5S)-2-(4-Amino-7H-pyrrolo[2,3-d]pyrimidin-7-yl)-5-((((3-methyl-5-(naphthalen-1-yl)isoxazol-4-yl)methyl)thio)methyl)tetrahydrofuran-3,4-diol] has an IC50 of 10 to 30 nM.
For Cc1ncnc(-c2ccc3c(c2)OCO3)c1CSC[C@H]1O[C@@H](n2ccc3c(N)ncnc32)[C@H](O)[C@@H]1O [Compound 102c, (2R,3R,4S,5S)-2-(4-Amino-7H-pyrrolo[2,3-d]pyrimidin-7-yl)-5-((((4-(benzo[d][1,3]dioxol-5-yl)-6-methylpyrimidin-5-yl)methyl)thio)methyl)tetrahydrofuran-3,4-diol], the IC50 was 30 to 100 nM.
Cc1noc(-c2ccc(N)cc2)c1CSC[C@H]1O[C@@H](n2cc(C#Cc3cncnc3)c3c(N)ncnc32)[C@H](O)[C@@H]1O [Compound 241c, (2R,3R,4S,5S)-2-(4-Amino-5-(pyrimidin-5-ylethynyl)-7H-pyrrolo[2,3-d]pyrimidin-7-yl)-5-((((5-(4-aminophenyl)-3-methylisoxazol-4-yl)methyl)thio)methyl)tetrahydrofuran-3,4-diol] gave an IC50 of 10 to 30 nM.
Compound Cc1noc(-c2ccccc2)c1CSC[C@H]1O[C@@H](n2cc(C#N)c3c(N)ncnc32)[C@H](O)[C@@H]1O [Compound 138b, 4-Amino-7-((2R,3R,4S,5S)-3,4-dihydroxy-5-((((3-methyl-5-phenylisoxazol-4-yl)methyl)thio)methyl)tetrahydrofuran-2-yl)-7H-pyrrolo[2,3-d]pyrimidine-5-carbonitrile] has an IC50 of 30 to 100 nM.
Cc1noc(-c2ccccc2)c1CSC[C@H]1O[C@@H](n2cc(C#Cc3nc4ccccc4[nH]3)c3c(N)ncnc32)[C@H](O)[C@@H]1O [Compound 179b, (2R,3R,4S,5S)-2-(5-((1H-Benzo[d]imidazol-2-yl)ethynyl)-4-amino-7H-pyrrolo[2,3-d]pyrimidin-7-yl)-5-((((3-methyl-5-phenylisoxazol-4-yl)methyl)thio)methyl)tetrahydrofiiran-3,4-diol] showed an IC50 of 100 to 500 nM.
Cc1noc(-c2ccccc2)c1CSC[C@H]1O[C@@H](n2cc(C3=CCC(C#N)CC3)c3c(N)ncnc32)[C@H](O)[C@@H]1O (stereo partly drawn) [Compound 141b, 4-(4-Amino-7-((2R,3R,4S,5S)-3,4-dihydroxy-5-((((3-methyl-5-phenyhsoxazol-4-yl)methyl)thio)methyl)tetrahydrofuran-2-yl)-7H-pyrrolo[2,3-d]pyrimidin-5-yl)cyclohex-3-ene-1-carbonitrile] was tested, and the IC50 was 10 to 30 nM.
Cn1cnc(-c2ccccc2)c1CSC[C@H]1O[C@@H](n2ccc3c(N)ncnc32)[C@H](O)[C@@H]1O [Compound 49c] gave an IC50 of 100 to 500 nM.
In the case of Cc1noc(-c2ccc3c(c2)OCO3)c1CSC[C@H]1O[C@@H](n2nc(-c3ccc(CC#N)cc3)c3c(N)ncnc32)[C@H](O)[C@@H]1O [Compound 226, 2-(4-(4-Amino-1-((2R,3R,4S,5S)-5-((((5-(benzo[d][1,3]dioxol-5-yl)-3-methylisoxazol-4-yl)methyl)thio)methyl)-3,4-dihydroxytetrahydrofuran-2-yl)-1H-pyrazolo[3,4-d]pyrimidin-3-yl)phenyl)acetonitrile], the IC50 is reported as 10 to 30 nM.
